According to patent US20240132477A1, “Benzimidazole Derivatives and Their Use As Inhibitors of ITK For The Treatment of Skin Disease” (PFIZER INC., priority 2020, published 2024):
Like-named read-outs stand apart in the source and are kept apart here.

What was measured:
[1] = target: Tropomyosin Receptor Kinase A (TRKA, NTRK1 enzyme) (Homo sapiens (Human), UniProt P04629); assay: TRKA (NTRK1) ThermoFisher Z'-LYTE assay; format: biochemical; details: read-out: TRKA % inhibition
Method: Tropomyosin Receptor Kinase a (TRKA) Activity, % Inhibition
TRKA, also known as neurotrophic tyrosine kinase receptor type 1 (NTKR1) activity was determined by measuring the effect of a test compound on the activity against the NTRK1 enzyme using the ThermoFisher Z′-LYTE Assay fluorescence-based coupled enzyme format (www.thermofisher.com/selectscreen). Test compounds were screened at a fixed concentration of 1 uM and the % inhibition was determined compared to controls at a fixed ATP concentration of 1 mM. The resulting effect value for the tested compound was compared to the assay controls to determine the % inhibition (%). % Inhibition (%) values for compounds of the invention are presented in the Table that follows.

[2] = target: IL-2-Inducible T-Cell Kinase (ITK) (Homo sapiens (Human), UniProt Q08881); assay: ITK enzyme assay; format: biochemical; details: geometric mean of count n; ITK FL enzyme, BTK peptide substrate
Chain of IL-2-Inducible T-Cell Kinase (ITK) (Q08881 whole entry): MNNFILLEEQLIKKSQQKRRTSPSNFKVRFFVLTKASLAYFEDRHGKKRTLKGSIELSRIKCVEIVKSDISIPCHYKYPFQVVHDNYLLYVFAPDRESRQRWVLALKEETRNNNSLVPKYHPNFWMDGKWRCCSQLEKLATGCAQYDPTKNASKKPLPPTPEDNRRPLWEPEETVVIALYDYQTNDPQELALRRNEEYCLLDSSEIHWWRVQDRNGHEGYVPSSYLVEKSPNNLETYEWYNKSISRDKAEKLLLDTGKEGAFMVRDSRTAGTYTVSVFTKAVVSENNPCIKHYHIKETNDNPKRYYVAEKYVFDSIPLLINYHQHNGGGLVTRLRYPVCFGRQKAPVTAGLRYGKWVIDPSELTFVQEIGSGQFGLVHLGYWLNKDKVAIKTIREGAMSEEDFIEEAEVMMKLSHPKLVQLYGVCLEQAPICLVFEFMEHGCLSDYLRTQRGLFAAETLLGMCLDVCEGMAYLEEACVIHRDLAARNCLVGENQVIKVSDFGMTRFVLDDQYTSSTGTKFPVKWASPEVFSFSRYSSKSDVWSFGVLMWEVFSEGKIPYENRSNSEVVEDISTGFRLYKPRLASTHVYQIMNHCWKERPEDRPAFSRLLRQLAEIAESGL
Method: IL-2-Inducible T-Cell Kinase (ITK) Activity, IC50 (uM)
ITK activity was determined by measuring the effect of a test compound in an ITK enzyme assay.
1.0 M HEPES Buffer pH 7.5 solution was prepared as follows: 238.3 g HEPES free acid (Sigma) and 800 mL of water were combined, and the mixture was stirred until complete dissolution. The pH was adjusted to 7.5 via titration with 5N NaOH and the volume adjusted to 1000 mL. The solution was filtered and sterilized.
ITK assay buffer was prepared as follows: 50 mL of HPLC-grade water was treated with 2 mL of 1.0 M HEPES Buffer, 500 μL of 2% Gelatin (Sigma), 1.0 mL of aqueous MgCl2 solution (1.0 M), and 1.0 mL of aqueous glutathione solution (0.5 M), and the solution was mixed. The solution was brought to 99 mL in a graduated cylinder by addition of water and sterilized through a 0.2 μm filter. 0.1 mL of Brij-35™ Surfact-AmpS™ Detergent Solution (10% w/v aqueous solution, ThermoFisher) and 1.0 mL of ATP (Teknova, 100 mM) were added and the solution was mixed.
Preparation of 1.33×ITK enzyme solution was as follows: 49.99 mL of ITK assay buffer was treated with 4.1 μL of ITK enzyme (ITK FL (N-Flag and C-His tagged, ˜72 kDa) Lake Pharma, 0.25 mg/ml in a buffer containing 25 mM Tris pH 7.8, 150 mM NaCl, 10% glycerol and 2 mM TCEP) and the mixture was gently agitated. The resulting solution was stored on ice. 30 Minutes prior to use, the enzyme solution was removed from ice and equilibrated to RT by incubation in a RT water bath.
Preparation of 4×ITK substrate solution was as follows: 50 mL of ITK assay buffer was treated with 100 μL of BTK peptide (China Peptide Company, 2 mM stock solution in DMSO). The tube was capped, mixed by gently inverting the tube, and then stored on ice. 30 Minutes prior to use, the substrate solution was removed from ice and equilibrated to RT by incubation in a RT water bath.
At the time of assay, 7.5 μL of the 1.33×ITK enzyme solution was added to plate wells containing 0.1 μL of varying concentrations of test compound in DMSO. The plate was incubated 30 min at RT. The plate wells were each treated with 2.5 uL of the 4×ITK substrate solution and the plate was sealed (TopSeal™, Perkin Elmer). The plate was spun at 1000 rpm for 30 sec and then incubated for 60 min at RT. The seal was removed, and each well was treated with 10 μL of Stop/Detect Buffer (20 mM HEPES pH 7.5, 0.01% gelatin, 1 nM LANCE PT66 (Perkin Elmer), 16.5 μg/ml Surelight APC (Perkin Elmer), 10 mM EDTA, 250 mM NaCl). The plate was again covered and was spun at 1000 rpm for 30 seconds. The plate was allowed to incubate overnight at RT and in a closed carrier to reduce dehydration. The seal was removed, and the fluorescence was read with a plate reader with […]. The concentrations and resulting effect values for the tested compound were plotted and the concentration of compound required for 50% effect (IC50) was determined with the four-parameter logistic dose response equation.

[3] = test system: IL-2 in supernatants from activated CD4+ human T-cells; assay: IL-2 inhibition in supernatants from activated CD4+ human T-cells (cisbio HTRF); format: cell-based; details: T-cell, read-out: IL-2 IC50
Method: IL-2-Inhibition Activity, IC50 (uM)
IL-2 inhibition activity in supernatants from activated CD4+ human T-cells was determined by measuring the effect of a test compound on the activity using the cisbio HTRF™ technology.
Human CD4+ T cells were activated with CD3/CD28 for 3 days and expanded for an additional 4-6 days (7 to 9 days total). On day 0, frozen CD4+ T cells were thawed, treated with CD3/CD28 Dynabeads, and incubated at 37° C./5% CO2. On day 3, the beads were removed, and the cells were diluted to 5×10^5 cells/cm^2, placed in G-Rex10 flask, and incubated at 37° C./5% CO2. On day 7 to day 9 the cells were removed from the G-Rex flasks, counted and diluted back to 1×10^6 cells/ml in standard tissue culture flask.
The expanded CD4+ T-cells were centrifuged at 300×g for 10 minutes and resuspended to 0.5 million cells per ml (30,000 cells/well). 60 μl of CD4+ T cells were added per well to a 384 well plate containing 0.1 μL of varying concentrations of test compound in DMSO. The plates were incubated for 15 min at 37° C./5% CO2. 20 μl of diluted ImmunoCult™ (STEMCELL Technologies, 1:12.5 in T cell assay media) were added to all wells of the plate (1:50 final assay concentration). The plates were incubated for an additional 20 to 24 hrs at 37° C./5% CO2. The plates were centrifuged at 300×g for 10 minutes. 16 μL of supernatant was removed and combined with 4 μl of IL-2 HTRF Abs. (cisbio kit). Plates were incubated for 3 hours at RT and read with an EnVision plate reader at 665 nm and 615 nm wavelengths. The concentrations and resulting effect values for the tested compound were plotted and the concentration of compound required for 50% effect (IC50) was determined with the four-parameter logistic dose response equation.

[4] = test compound 1 uM, ATP 1 mM, arithmetic mean of count n
[5] = geometric mean of count n, activated CD4+ human T-cells, 20 to 24 hrs

Chain of Tropomyosin Receptor Kinase A (TRKA, NTRK1 enzyme) (P04629 33-796): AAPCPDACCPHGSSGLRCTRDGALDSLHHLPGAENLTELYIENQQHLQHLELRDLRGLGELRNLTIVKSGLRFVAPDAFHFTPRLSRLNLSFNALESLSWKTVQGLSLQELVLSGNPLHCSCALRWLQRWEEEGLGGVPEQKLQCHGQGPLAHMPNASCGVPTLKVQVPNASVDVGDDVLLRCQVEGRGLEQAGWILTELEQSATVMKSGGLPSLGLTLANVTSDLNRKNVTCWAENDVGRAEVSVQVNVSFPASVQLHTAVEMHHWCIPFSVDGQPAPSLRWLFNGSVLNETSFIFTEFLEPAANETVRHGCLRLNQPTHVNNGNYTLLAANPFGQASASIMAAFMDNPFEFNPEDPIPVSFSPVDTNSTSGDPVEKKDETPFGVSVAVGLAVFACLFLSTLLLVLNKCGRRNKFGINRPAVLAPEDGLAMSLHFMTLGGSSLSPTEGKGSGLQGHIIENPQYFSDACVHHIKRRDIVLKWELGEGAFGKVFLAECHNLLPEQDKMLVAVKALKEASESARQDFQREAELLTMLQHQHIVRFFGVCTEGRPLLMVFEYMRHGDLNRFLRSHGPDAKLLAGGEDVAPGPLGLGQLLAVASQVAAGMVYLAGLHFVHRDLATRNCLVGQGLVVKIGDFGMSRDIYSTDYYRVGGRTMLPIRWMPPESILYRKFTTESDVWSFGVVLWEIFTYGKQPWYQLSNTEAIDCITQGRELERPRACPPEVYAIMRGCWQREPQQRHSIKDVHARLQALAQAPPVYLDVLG

Row | SMILES | inhibition at 1 µM [1, 4] [%] | IC50 [2] [nM] | IC50 [3, 5] [nM] | inhibition at 1 µM [1] [%] | IC50 ([3]; Homo sapiens) [nM]
1 | COCCOc1cc2[nH]c(-c3n[nH]c4c3C[C@@H]3C[C@]3(C)C4)nc2cc1N(C)C(C)=O [Example 7, N-(6-(2-methoxyethoxy)-2-((4aS,5aR)-5a-methyl-1,4,4a,5,5a,6-hexahydrocyclopropa[f]indazol-3-yl)-1H-benzo[d]imidazol-5-yl)-N-methylacetamide] | 105 | 13 | 595 |  | 
2 | Cc1cc2[nH]c(-c3n[nH]c4c3C[C@@H]3C[C@]3(C)C4)nc2cc1N(C)C(=O)[C@H]1CCCO1 [Example 23, (R)-N-Methyl-N-(5-methyl-2-((4aS,5aR)-5a-methyl-1,4,4a,5,5a,6-hexahydrocyclopropa[f]indazol-3-yl)-1H-benzo[d]imidazol-6-yl)tetrahydrofuran-2-carboxamide] | 97 | 10 | 89 |  | 
3 | Cc1cc2[nH]c(-c3n[nH]c4c3C[C@@H]3C[C@]3(C)C4)nc2cc1N(C)C(=O)CN(C)C(=O)C(C)C [Example 30, N-Methyl-N-(2-(methyl(6-methyl-2-((4aS,5aR)-5a-methyl-1,4,4a,5,5a,6-hexahydrocyclopropa[f]indazol-3-yl)-1H-benzo[d]imidazol-5-yl)amino)-2-oxoethyl)isobutyramide] |  | 3 |  | 98 | 51

The remaining compounds from weak to strong by IC50 [2], led by results:

Row | inhibition at 1 µM [1, 4] [%] | IC50 [2] [nM] | IC50 [3, 5] [nM] | SMILES | inhibition at 1 µM [1] [%] | IC50 ([3]; Homo sapiens) [nM]
4 | 100 | 10 | 81 | CC(=O)N(C)c1cc2nc(-c3n[nH]c4c3C[C@@H]3C[C@]3(C)C4)[nH]c2cc1C [Example 17, N-Methyl-N-(6-methyl-2-((4aS,5aR)-5a-methyl-1,4,4a,5,5a,6-hexahydrocyclopropa[f]indazol-3-yl)-1H-benzo[d]imidazol-5-yl)acetamide] |  | 
5 | 97 | 7 | 74 | CCOCC(=O)N(C)c1cc2nc(-c3n[nH]c4c3C[C@@H]3C[C@]3(C)C4)[nH]c2cc1C [Example 38, 2-Ethoxy-N-methyl-N-(6-methyl-2-((4aS,5aR)-5a-methyl-1,4,4a,5,5a,6-hexahydrocyclopropa[f]indazol-3-yl)-1H-benzo[d]imidazol-5-yl)acetamide] |  | 
6 | 97 | 6 | 61 | Cc1cc2[nH]c(-c3n[nH]c4c3C[C@@H]3C[C@]3(C)C4)nc2cc1N(C)C(=O)[C@@H]1CCOC1 [Example 29, (R)-N-Methyl-N-(6-methyl-2-((4aS,5aR)-5a-methyl-1,4,4a,5,5a,6-hexahydrocyclopropa[f]indazol-3-yl)-1H-benzo[d]imidazol-5-yl)tetrahydrofuran-3-carboxamide] |  | 
7 | 97 | 5 | 62 | CC(=O)N(CC(=O)N(C)c1cc2nc(-c3n[nH]c4c3C[C@@H]3C[C@]3(C)C4)[nH]c2cc1C)C(C)C [Example 35, 2-(N-Isopropylacetamido)-N-methyl-N-(6-methyl-2-((4aS,5aR)-5a-methyl-1,4,4a,5,5a,6-hexahydrocyclopropa[f]indazol-3-yl)-1H-benzo[d]imidazol-5-yl)acetamide] |  | 
8 | 98 | 3 | 69 | Cc1cc2[nH]c(-c3n[nH]c4c3C[C@@H]3C[C@]3(C)C4)nc2cc1N(C)C(=O)CN1CCCC1=O [Example 31, N-Methyl-N-(6-methyl-2-((4aS,5aR)-5a-methyl-1,4,4a,5,5a,6-hexahydrocyclopropa[f]indazol-3-yl)-1H-benzo[d]imidazol-5-yl)-2-(2-oxopyrrolidin-1-yl)acetamide] |  | 
